From patent US5177223A, “Indoleacetic acid derivatives, process for their preparation, and medicines containing same as active ingredients” (Zeria Pharmaceutical Co., Ltd., priority 1988, dated 1993)
“And” between values parts separate entries of the source, which are not always exact repeats. Identical values can stand only once. Counter-ions that a name gives are not always drawn. Like-named read-outs stand apart in the source and are kept apart here.

Experiments:
gastric-acid secretion = assay: Test of Inhibition of Gastric-Acid Secretion by Histamine Stimulation; assay type: in vivo, Male SD rats; settings: rat
Protocol: Test of Inhibition of Gastric-Acid Secretion by Histamine Stimulation
A feeding tube (fr. 3.5) for injecting test medicines was inserted into the duodenum, and the pylorus was ligatured. A polyethylene tube (inner diameter: 7 mm) was used in the anterior stomach and gastric fistula was performed. After washing the inside of the stomach with heated physiological salt solution (37° C.) several times, the body was closed. A tube with a fin was inserted into the caudal vein and was fastened with a tape and it was connected to a infusion pump (Harvard). The rats were enclosed in a KN Ballman II cage (Natsume Seisakusho). Gastric juice flowed from the fistula was collected with a messcylinder every one hour. Starting from one hour after the operation, histamine was continuously injected at a rate of 1.4 ml/hour through the caudal vein. Then, test compounds suspended in 0.5% sodium caboxy methyl cellulose (Na-CMC) were administered one hour after the start of the histamine injection. The gastric juice thus extracted in a period from one hour after the administration of the chemical to four hours after that was titrated by using an automatic titration apparatus (Kyoto Electronic) with 0.1N NaOH to adjust pH 7, and the quantity of the gastric juice was measured to obtain the total acid output.

[1] = system: carrageenin plantar edema; assay: Test of Carrageenin Plantar Edema; assay type: in vivo, Male Wistar rats; settings: for inhibition rate at the peak compared with that of indomethacin: 84.0 μmol/kg; for inhibition rate at the peak compared with that of indomethacin / ED50 value relative to that of indomethacin: compared with indomethacin; for ED50: read-out: Carrageenin edema ED50
Protocol: Test of Carrageenin Plantar Edema
After the body weight of each rat had been measured, the volume of the right hind-leg of the rat was measured by using an apparatus for measuring plantar volumes. The rats were then divided into groups so that the groups have the same body weight average and plantar volume average. A test compound was suspended in an aqueous solution of 5% tragacanth gum and then orally administered to each of the rats. 0.1 ml of a physiological saline of 1% carrageenin was hypodarmically injected into the sole of the right hind-leg of each rat. The volume was measured for each rat every 1 hour for 5 hours. An edema rate was determined by using a rate of increase in the volume measured after treatment to the volume measured before treatment.

gastric mucosa = assay: Test of Injury to Gastric Mucosa; assay type: in vivo, Male Wistar rats; parameters: key to Ulcer Index: ulcer index determined by the Munchow method; settings: oral, rat; for Ulcer occurrence (%) / Ulcer Index: 5 hours; for degree of injury to the gastric mucosa: as compared with indomethacin
Protocol: Test of Injury to Gastric Mucosa
Male Wistar rats each having a body weight of about 180 to 200 g were divided into groups consisting of 10 rats and were fasted for 24 hours. After body weight of each rat has been measured, a test compound was suspended in an aqueous solution of 5% tragacanth gum and then orally administered to each rat. The rats were fasted again, and after 5 hours had passed, they were killed by cervical dislocation. A 1% formalin solution was injected into the gastric cavity of each of the rats so that it was semifixed. The gaster of each rat was cut along the greater curvature of the stomach, and the ulcer index of each rat was measured under a stereoscopic microscope and determined by the Munchow method. The Mann-Whitney U-test was applied to the statistic data processing.

ICR male mice = assay: Acute Toxicity Test; assay type: in vivo; settings: oral, single dose 25, 50 and 75 mg/kg each
Protocol: A test compound was suspended in an aqueous solution of 5% gum arabic and then orally administered to each of 4 to 5-week old ICR male mice (Charles River Co., Ltd.) each having a body weight of 22 to 30 g in each group consisting of 3 to 4 mice, once in each of doses 25, 50, 75, 200 and 500 mg/kg.

[2] = oral, rat, dose 8.4 μmol/kg (Example 2 6.4, Example 5 6.9, indomethacin 3.0 mg/kg)
[3] = oral, rat, dose 28.0 μmol/kg (Example 5 23.0, indomethacin 10.0 mg/kg)
[4] = oral, rat, dose 84.0 μmol/kg (Example 2 64.0, Example 5 69.0, indomethacin 30.0 mg/kg)
[5] = dose 28.0 μmol/kg (Example 5 23.0, indomethacin 10.0 mg/kg)
[6] = dose 28.0 μmol/kg (Example 5 23.0, indomethacin 10.0 mg/kg), ** p < 0.01
[7] = dose 84.0 μmol/kg (Example 2 64.0, Example 5 69.0, indomethacin 30.0 mg/kg)
[8] = dose 84.0 μmol/kg (Example 2 64.0, Example 5 69.0, indomethacin 30.0 mg/kg), ** p < 0.01
[9] = dose 25.2 μmol/kg (Example 2 19.2 mg/kg)

CN/C(=N/CCSCc1nc[nH]c1C)NC#N [Cimetidine, reference compound]
Gastric-acid secretion inhibition rate (%) (gastric-acid secretion; dose 30 mg/kg): 32.3%

COc1ccc2c(c1)c(CC(=O)OCCSCC(=O)NCCCOc1cccc(CN3CCCCC3)c1)c(C)n2C(=O)c1ccc(Cl)cc1 [Example 5, 2-[N-[3-[3-(piperidinomethyl)phenoxy]propyl]carbamoylmethylthio]ethyl 1-(4-chlorobenzoyl)-5-methoxy-2-methyl-3-indolylacetate maleate]
inhibition rate at the peak compared with that of indomethacin ([1]; oral, rat): slightly higher
Carrageenin edema inhibition (%) rate at peak [1, 2]: 19.1%
Carrageenin edema inhibition (%) rate at peak [1, 3]: 41.2%
Carrageenin edema inhibition (%) rate at peak [1, 4]: 68.4%
Carrageenin edema inhibition (%) rate at peak ([1]; oral, rat, dose 280.0 μmol/kg (Example 5 230.0 mg/kg)): 72.7%
ED50 value relative to that of indomethacin ([1]; oral, rat): about 2 times
ED50 ([1]; oral, rat): 47.8 µmol/kg and 39.3 mg/kg
Ulcer occurrence (%) (gastric mucosa; [5]): 0%
Ulcer Index (gastric mucosa; [6]): 0.1 ± 0.01
Ulcer occurrence (%) (gastric mucosa; [7]): 0%
Ulcer Index (gastric mucosa; [8]): 0.0 ± 0.00
Ulcer Index (gastric mucosa; dose 280.0 μmol/kg (Example 5 230.0 mg/kg)): 0.0 ± 0.00
degree of injury to the gastric mucosa (gastric mucosa): extremely low degree of injury
Gastric-acid secretion inhibition rate (%) (gastric-acid secretion; dose 22 mg/kg): 47.4%
Gastric-acid secretion inhibition rate (%) (gastric-acid secretion; dose 44 mg/kg): 74.1%

COc1ccc2c(c1)c(CC(=O)OCC(=O)NCCCOc1cccc(CN3CCCCC3)c1)c(C)n2C(=O)c1ccc(Cl)cc1 [Example 2, N-[3-[3-(piperidinomethyl)phenoxy]propyl]carbamoylmethyl 1-(4-chlorobenzoyl)-5-methoxy-2-methyl-3-indolylacetate maleate]
inhibition rate at the peak compared with that of indomethacin ([1]; oral, rat): slightly higher
Carrageenin edema inhibition (%) rate at peak [1, 2]: 34.9%
Carrageenin edema inhibition (%) rate at peak ([1]; oral, rat, dose 25.2 μmol/kg (Example 2 19.2 mg/kg)): 50.4%
Carrageenin edema inhibition (%) rate at peak [1, 4]: 62.6%
ED50 value relative to that of indomethacin ([1]; oral, rat): substantially the same
ED50 ([1]; oral, rat): 27.8 µmol/kg and 21.1 mg/kg
Ulcer Index (gastric mucosa; [9]): 1.3 ± 0.63
Ulcer occurrence (%) (gastric mucosa; [9]): 0%
Ulcer occurrence (%) (gastric mucosa; [7]): 14%
Ulcer Index (gastric mucosa; [8]): 5.9 ± 4.92
Ulcer occurrence (%) (gastric mucosa; dose 251.9 μmol/kg (Example 2 192.0 mg/kg)): 40%
Ulcer Index (gastric mucosa; dose 251.9 μmol/kg (Example 2 192.0 mg/kg), * p < 0.05): 17.5 ± 15.84
degree of injury to the gastric mucosa (gastric mucosa): extremely low degree of injury

COc1ccc2c(c1)c(CC(=O)O)c(C)n2C(=O)c1ccc(Cl)cc1 [Indomethacin, indomethacin, reference compound]
ED50 ([1]; Rattus norvegicus, po): 20.6 µmol/kg and 7.4 mg/kg
Carrageenin edema inhibition (%) rate at peak ([1]; oral, rat, dose 2.8 μmol/kg (indomethacin 1.0 mg/kg)): 24.6%
Carrageenin edema inhibition (%) rate at peak [1, 2]: 49.8%
Carrageenin edema inhibition (%) rate at peak [1, 3]: 59.4%
Carrageenin edema inhibition (%) rate at peak [1, 4]: 55.9%
Ulcer occurrence (%) (gastric mucosa; [5]): 70%
Ulcer Index (gastric mucosa; [6]): 46.5 ± 15.00
Ulcer occurrence (%) (gastric mucosa; dose 56.0 μmol/kg (indomethacin 20.0 mg/kg)): 70%
Ulcer Index (gastric mucosa; dose 56.0 μmol/kg (indomethacin 20.0 mg/kg), ** p < 0.01): 52.8 ± 17.47
Ulcer occurrence (%) (gastric mucosa; [7]): 80%
Ulcer Index (gastric mucosa; [8]): 62.1 ± 16.50
death of mice (ICR male mice): all the mice in the groups, to which 25, 50 and 75 mg/kg of indomethacin were respectively administered, died
